Source: PubChem BioAssay (NCI)
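96-well plates; 48 h exposure; 5 concentrations. Endpoints by linear interpolation between flanking doses. Not reached: highest tested concentration assigned. Definition used: TGI = concentration required for complete inhibition of growth.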

Assays:
Assay in all cases: inhibition of tumour cell growth, NCI panel, 48 h
[1] = tested on: MOLT-4 leukemia
[2] = tested on: DU-145 prostate
[3] = tested on: OVCAR-3 ovarian
[4] = tested on: OVCAR-4 ovarian
[5] = tested on: MDA-MB-435
[6] = tested on: BT-549 breast
[7] = tested on: MDA-MB-231 breast
[8] = tested on: TK-10 renal
[9] = tested on: CAKI-1 renal
[10] = tested on: HCT-116 colon

For CN(C)c1ccc(Cc2cc3c(O)ccc(O)c3cc(Cc3ccc(N(C)C)cc3)c2=O)cc1, the TGI [1] was 8.81 µM, the TGI [2] was greater than 60 µM and the TGI [3] was 54.2 µM. The TGI [4] was 39.5 µM, the TGI [5] was 36.9 µM and the TGI [6] was 32.2 µM. It also gave a TGI [7] of 63.5 µM, a TGI [8] of 33.6 µM and a TGI [9] of 20.5 µM. It also gave a TGI [10] of 40.8 µM.

COC(=O)C1(O)C(c2ccccc2)=NC2(C)CCCC21 (stereo not given) showed a TGI [1] greater than 100 µM, a TGI [2] greater than 100 µM and a TGI [3] greater than 100 µM. The TGI [4] was greater than 100 µM, the TGI [5] was greater than 100 µM and the TGI [6] was greater than 100 µM. The TGI [7] was greater than 100 µM, the TGI [8] was greater than 100 µM and the TGI [9] was greater than 100 µM. It also gave a TGI [10] greater than 100 µM.

In the case of COC(=O)N1N=C(c2ccccc2)C1c1ccccc1 (stereo not given), the TGI [1] is reported as greater than 100 µM, the TGI [2] is reported as greater than 100 µM and the TGI [3] is reported as greater than 100 µM. For the same molecule, the TGI [4] was greater than 100 µM, the TGI [5] was greater than 100 µM and the TGI [6] was greater than 100 µM. For the same molecule, the TGI [7] was greater than 100 µM, the TGI [8] was greater than 100 µM and the TGI [9] was greater than 100 µM. For the same molecule, the TGI [10] was greater than 100 µM.
